Source: article PMC7321408, “One-Pot Multicomponent Synthesis and Bioevaluation of Tetrahydroquinoline Derivatives as Potential Antioxidants, α-Amylase Enzyme Inhibitors, Anti-Cancerous and Anti-Inflammatory Agents” (Molecules, 2020)
Converted amounts (≈) assume the structure as drawn. Where two headings read alike, the source gives them in different places.

How the values were obtained:
[1] = DPPH free radical scavenging assay; settings: mean ± SEM, n = 3; for IC50 (DPPH radical scavenging): concentration to scavenge 50% of the DPPH radicals
Method in brief: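 Compounds at 200, 66.6, 22.2 and 7.4 µg/mL were mixed with DPPH radical, with DMSO as the negative control. Absorbance was read at 630 nm, and % scavenging was calculated as (1 − Abs/Abc) × 100 against the control.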

[2] = MTT cytotoxicity against raw macrophages; assay type: cell-based, albino rats; settings: rat; for viability at 24 h, 1 µM / viability at 24 h, 10 µM / viability at 24 h, 50 µM / viability at 24 h, 100 µM: peritoneal macrophages (raw macrophages), raw macrophages, MTT, read-out: % Cell Viability; for IC50 at 24 h: primary peritoneal macrophages, mean ± SEM, n = 3
Method in brief: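 Peritoneal macrophages from albino rats were treated for 24 h at 37 °C, 5% CO2 with test compounds at 100, 50, 10 and 1 µM or vehicle, from DMSO stocks. MTT was then added for 2 h, formazan dissolved in DMSO and absorbance read at 570 nm. % viability = blank-corrected sample over blank-corrected control ×100.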

Hep-2C cells = assay: MTT assay against Hep-2C cells; assay type: cell-based, Human; settings: Homo sapiens, Hep2C, read-out: IC50 (Mean ± SEM) Hep-2C Cells
Method in brief: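 Human cervix carcinoma Hep-2C cells in DMEM with 10% FCS, seeded at 1 × 10^6 and exposed to test compounds for 24, 48 and 72 h. MTT (1 mg per mL) added for 4 h, formazan dissolved in DMSO, absorbance at 570 nm. Viability % versus untreated cells after blank subtraction.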

[3] = test system: NO generated by LPS-induced macrophages; assay: Nitric oxide assay (Griess) in LPS-induced macrophages; assay type: cell-based, murine; settings: Mus musculus, Macrophage, 18 h, LPS 1 µg/mL, read-out: % NO Production (Mean ± SEM)
Method in brief: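 Murine macrophages (1 × 10^6/well) pre-treated 2 h with compound at 100, 50, 10 or 1 µM, then LPS 1 µg/mL for 18 h. Nitrite in medium measured with Griess reagent at 540 nm against a NaNO2 standard curve; piroxicam as positive control, t-test for significance.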

SMILES | % DPPH Scavenging Activity ([1]; 7.4 µg/mL) | % DPPH Scavenging Activity ([1]; 22.22 µg/mL) | % DPPH Scavenging Activity ([1]; 66.66 µg/mL) | % DPPH Scavenging Activity ([1]; 200 µg/mL) | IC50 (DPPH radical scavenging) [1] | viability at 24 h, 1 µM ([2]; albino) | viability at 24 h, 10 µM ([2]; albino) | viability at 24 h, 50 µM ([2]; albino) | viability at 24 h, 100 µM ([2]; albino) | IC50 at 24 h ([2]; albino) | IC50 (Hep-2C cells; 24 h) | IC50 (Hep-2C cells; 48 h) | IC50 (Hep-2C cells; 72 h) | activity at 1 µM [3] | activity at 10 µM [3] | activity at 50 µM [3] | activity at 100 µM [3] | IC50 at 24 h [2]
c1ccc2c(c1)CCCN2CN1CCCCC1 [SF1, 1-(Piperidine-1-ylmethyl) 1,2,3,4-tetrahahydroquinoline] | 11.91 ± 0.32% | 27.76 ± 0.11% | 50.08 ± 0.18% | 62.45 ± 0.12% | 44.22 ± 0.25 µg/mL (≈ 192 µM) | 58 ± 0.76% | 48 ± 1.34% | 47 ± 0.84% | 44.7 ± 0.5% | 6.232 ± 0.01 µM | 28 ± 1.07 µM | 21.8 ± 1.1 µM | 14.8 ± 1.07 µM | 27.8 ± 0.45% | 26 ± 0.43% | 23.7 ± 0.41% | 17.3 ± 0.35% | –
CN1CCN(CN2CCCc3ccccc32)CC1 [SF5] | 7.76 ± 0.23% | 17.39 ± 0.16% | 28.77 ± 0.14% | 45.24 ± 0.28% | 56.63 ± 0.32 µg/mL (≈ 231 µM) | 98 ± 1.01% | 74 ± 0.42% | 67 ± 0.84% | 60 ± 1.2% | 6.181 ± 0.05 µM | 21.3 ± 1.09 µM | 18 ± 1.05 µM | 16.8 ± 1.07 µM | 51.43 ± 0.48% | 43 ± 0.45% | 28.6 ± 0.44% | 21.9 ± 0.38% | –
c1ccc(N(CN2CCCc3ccccc32)c2ccccc2)cc1 [SF7, N-((3,4-dihydroquinolin-1(2H)-yl)methyl)-N-phenylaniline] | 9.28 ± 0.13% | 26.76 ± 0.17% | 50.48 ± 0.054% | 64.48 ± 0.18% | 44.4 ± 0.29 µg/mL (≈ 141 µM) | 96 ± 0.89% | 95 ± 0.96% | 84 ± 0.77% | 58 ± 0.83% | 18.64 ± 0.13 µM | 26.7 ± 1.1 µM | 21.6 ± 1.05 µM | 16.8 ± 1.03 µM | 69.71 ± 0.65% | 63.12 ± 0.61% | 21.4 ± 0.48% | 17.5 ± 0.45% | 18.6 ± 0.13 µM
